From patent publication US8952024B2, “Herbicidal pyrimidone derivatives” (E I du Pont de Nemours and Company, priority 2009, dated 2015)

Columns and labels:
Type in all cases: in vivo
[1] = tested on: lambsquarters (Chenopodium album); assay: Test B pre-/postemergence plant response; conditions: Postemergence
Source text: (§1) Seeds of plant species selected from blackgrass (Alopecurus myosuroides), downy bromegrass (Bromus tectorum), green foxtail (Setaria viridis), Italian ryegrass (Lolium multiflorum), wheat (Triticum aestivum), wild oat (Avena fatua), deadnettle (henbit deadnettle, Lamium amplexicaule), galium (catchweed bedstraw, Galium aparine), bermudagrass (Cynodon dactylon), Surinam grass (Brachiaria decumbens), cocklebur (Xanthium strumarium), corn (Zea mays), large crabgrass (Digitaria sanguinalis), woolly cupgrass (Eriochloa villosa), giant foxtail (Setaria faberii), goosegrass (Eleusine indica), johnsongrass (Sorghum halepense), kochia (Kochia scoparia), lambsquarters (Chenopodium album), morningglory (Ipomoea coccinea), nightshade (eastern black nightshade, Solanum ptycanthum), yellow nutsedge (Cyperus esculentus), pigweed (Amaranthus retroflexus), ragweed (common ragweed, Ambrosia elatior), Russian thistle (Salsola kali), soybean (Glycine max), sunflower (common oilseed sunflower, Helianthus annuus) and velvetleaf (Abutilon theophrasti) were planted into a blend of loam soil and sand and treated preemergence with test compounds formulated in a non-phytotoxic solvent mixture which included a surfactant.
(§2) At the same time, plants selected from these crop and weed species and also winter barley (Hordeum vulgare), canarygrass (Phalaris minor), chickweed (Stellaria media) and windgrass (Apera spica-venti) were planted in pots containing Redi-Earth® planting medium (Scotts Company, 14111 Scottslawn Road, Marysville, Ohio 43041) comprising spaghnum peat moss, vermiculite, wetting agent and starter nutrients and treated with postemergence applications of some of the test chemicals formulated in the same manner. Plants ranged in height from 2 to 18 cm (1- to 4-leaf stage) for postemergence treatments.
(§3) Treated plants and controls were maintained in a greenhouse for 13 to 15 days, after which time all treated plants were visually evaluated and compared to controls. Plant response ratings, summarized in Table B, are based on a scale of 0 to 100 where 0 is no effect and 100 is complete control. A dash (-) response means no test result.

[2] = tested on: wheat (Triticum aestivum); assay: Test B pre-/postemergence plant response
Source text: as §1, §2, §3

[3] = tested on: downy bromegrass (Bromus tectorum); assay: Test B pre-/postemergence plant response; conditions: Postemergence
Source text: as §1, §2, §3

[4] = tested on: pigweed (Amaranthus retroflexus); assay: Test B pre-/postemergence plant response; conditions: Postemergence
Source text: as §1, §2, §3

[5] = tested on: yellow nutsedge (Cyperus esculentus); assay: Test B pre-/postemergence plant response; conditions: Postemergence
Source text: as §1, §2, §3

[6] = tested on: woolly cupgrass (Eriochloa villosa); assay: Test B pre-/postemergence plant response; conditions: Postemergence
Source text: as §1, §2, §3

[7] = tested on: bermudagrass (Cynodon dactylon); assay: Test B pre-/postemergence plant response; conditions: Postemergence
Source text: as §1, §2, §3

[8] = tested on: Surinam grass (Brachiaria decumbens); assay: Test B pre-/postemergence plant response
Source text: as §1, §2, §3

[9] = tested on: barnyardgrass (Echinochloa crus-galli); assay: Test B flooded paddy test; conditions: for Plant response rating, Barnyardgrass: Flood (flooded paddy test), 13 to 15 days
Procedure, shortened: (§4)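 Greenhouse-held for 13 to 15 days, treated pots were compared visually with controls and scored 0–100 (0, no effect). Treatment had been made into paddy water kept at 3 cm above the soil, with plants at the 2-leaf stage.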

[10] = tested on: ducksalad (Heteranthera limosa); assay: Test B flooded paddy test; conditions: for Plant response rating, Ducksalad: Flood (flooded paddy test), 13 to 15 days
Procedure, shortened: as §4

[11] = tested on: rice (Oryza sativa); assay: Test B flooded paddy test; conditions: for Plant response rating, Rice: Flood (flooded paddy test), 13 to 15 days
Procedure, shortened: as §4

[12] = tested on: umbrella sedge (Cyperus difformis); assay: Test B flooded paddy test; conditions: for Plant response rating, Sedge, Umbrella: Flood (flooded paddy test), 13 to 15 days
Procedure, shortened: as §4

[13] = 31 g ai/ha, scale 0 to 100 (0 no effect, 100 complete control)
[14] = 62 g ai/ha, scale 0 (no effect) to 100 (complete control), 13 to 15 days
[15] = 125 g ai/ha, visual rating after 13 to 15 days, scale 0 (no effect) to 100 (complete control)
[16] = Postemergence, 31 g ai/ha, scale 0 to 100 (0 no effect, 100 complete control)
[17] = Postemergence, 62 g ai/ha, scale 0 (no effect) to 100 (complete control), 13 to 15 days
[18] = Postemergence, 125 g ai/ha, visual rating after 13 to 15 days, scale 0 (no effect) to 100 (complete control)
[19] = Postemergence, 250 g ai/ha, scale 0 to 100
[20] = Preemergence, 0 is no effect, 100 is complete control, rated after 13 to 15 days, application rate of this section not shown
[21] = 250 g ai/ha, flooded paddy test, visual rating on 0 to 100 scale (0 no effect, 100 complete control) after 13 to 15 days
[22] = 31 g ai/ha, scale of 0 to 100 where 0 is no effect and 100 is complete control
[23] = 62 g ai/ha, scale 0 to 100, 0 is no effect, 100 is complete control
[24] = 125 g ai/ha, scale 0 to 100, 0 is no effect, 100 is complete control

5-[(2-hydroxy-6-oxo-1-cyclohexen-1-yl)carbonyl]-2,3-diphenyl-4(3H)-pyrimidinone [Compound 2]
Plant response rating, Lambsquarters [1, 13]: 70 | Plant response rating, Lambsquarters [1, 14]: 75 | Plant response rating, Lambsquarters [1, 15]: 90 | Lambsquarters plant response rating ([1]; 250 g ai/ha, scale 0 to 100): 90 | Plant response rating, Wheat [2, 16]: 0 | Plant response rating, Wheat [2, 17]: 0 | Plant response rating, Wheat [2, 18]: 0 | Wheat plant response rating [2, 19]: 5 | Wheat plant response rating (0 to 100 scale) [2, 20]: 0 | Plant response rating, Bromegrass, Downy [3, 13]: 0 | Plant response rating, Bromegrass, Downy [3, 14]: 0 | Plant response rating, Bromegrass, Downy [3, 15]: 0 | Bromegrass, Downy plant response rating ([3]; 250 g ai/ha, scale 0 to 100): 10 | Plant response rating, Pigweed [4, 13]: 65 | Plant response rating, Pigweed [4, 14]: 80 | Plant response rating, Pigweed [4, 15]: 85 | Pigweed plant response rating ([4]; 250 g ai/ha, scale 0 to 100): 90 | Plant response rating, Nutsedge, Yellow [5, 13]: 15 | Plant response rating, Nutsedge, Yellow [5, 14]: 20 | Plant response rating, Nutsedge, Yellow [5, 15]: 20 | Nutsedge, Yellow plant response rating ([5]; 250 g ai/ha, scale 0 to 100): 45 | Plant response rating, Cupgrass, Woolly [6, 13]: 0 | Plant response rating, Cupgrass, Woolly [6, 14]: 0 | Plant response rating, Cupgrass, Woolly [6, 15]: 0 | Cupgrass, Woolly plant response rating ([6]; 250 g ai/ha, scale 0 to 100): 20 | Plant response rating, Bermudagrass [7, 13]: 40 | Plant response rating, Bermudagrass [7, 14]: 50 | Plant response rating, Bermudagrass ([7]; 125 g ai/ha, scale 0 to 100 (0 no effect, 100 complete control), 13 to 15 days): 60 | Bermudagrass plant response rating ([7]; 250 g ai/ha, scale 0 to 100): 65 | Plant response rating, Surinam Grass [8, 16]: 0 | Plant response rating, Surinam Grass [8, 17]: 0 | Plant response rating, Surinam Grass [8, 18]: 10 | Surinam Grass plant response rating [8, 19]: 20 | Surinam Grass plant response rating (0 to 100 scale) [8, 20]: 0 | Plant response rating, Flood, Barnyardgrass [9, 21]: 0 | Plant response rating, Barnyardgrass [9, 22]: 0 | Plant response rating, Barnyardgrass [9, 23]: 0 | Plant response rating, Barnyardgrass [9, 24]: 0 | Plant response rating, Flood, Ducksalad [10, 21]: 0 | Plant response rating, Ducksalad [10, 22]: 0 | Plant response rating, Ducksalad [10, 23]: 0 | Plant response rating, Ducksalad [10, 24]: 0 | Plant response rating, Flood, Rice [11, 21]: 0 | Plant response rating, Rice [11, 22]: 0 | Plant response rating, Rice [11, 23]: 0 | Plant response rating, Rice [11, 24]: 0 | Plant response rating, Flood, Sedge, Umbrella [12, 21]: 0 | Plant response rating, Sedge, Umbrella [12, 22]: 0 | Plant response rating, Sedge, Umbrella [12, 23]: 0 | Plant response rating, Sedge, Umbrella [12, 24]: 0
